Test results: patent publication US20040024024A1, “Aromatic sulfone hydroxamates and their use as protease inhibitors” (priority 2001, published 2004)

Experiments:
Human recombinant MMP-2 = target: T1, Human recombinant MMP-2 (Homo sapiens, UniProt P08253); assay: In vitro MMP inhibition, IC50 determination (fluorogenic substrate I); format: biochemical
T1 construct: made in house; host or cells: MMP-2-transfected p2AHT2 cells
T1 sequence (P08253 110-660): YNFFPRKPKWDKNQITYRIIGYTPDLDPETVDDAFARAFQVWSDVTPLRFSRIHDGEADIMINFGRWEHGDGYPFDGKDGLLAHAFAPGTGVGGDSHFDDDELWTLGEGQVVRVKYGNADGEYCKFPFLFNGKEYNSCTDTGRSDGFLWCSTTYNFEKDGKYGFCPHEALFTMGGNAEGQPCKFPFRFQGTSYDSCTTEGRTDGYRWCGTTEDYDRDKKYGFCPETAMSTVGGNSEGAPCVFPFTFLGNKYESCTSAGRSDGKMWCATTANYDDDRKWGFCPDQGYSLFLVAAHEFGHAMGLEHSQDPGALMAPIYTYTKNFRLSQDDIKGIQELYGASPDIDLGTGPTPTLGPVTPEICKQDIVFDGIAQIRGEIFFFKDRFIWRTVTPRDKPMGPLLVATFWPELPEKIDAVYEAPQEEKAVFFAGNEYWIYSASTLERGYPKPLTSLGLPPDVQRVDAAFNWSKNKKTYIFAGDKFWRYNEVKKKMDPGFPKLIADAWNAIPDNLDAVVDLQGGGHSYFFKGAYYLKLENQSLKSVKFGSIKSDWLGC
Protocol: (§1) Several hydroxamates and salts thereof were analyzed in in vitro assays to determine their ability to inhibit the MMP cleavage of peptide substrates. Inhibition (Ki) and IC50 constants were calculated from the assayed hydroxamate-MMP interactions.
(§2) Human recombinant MMP-1, MMP-2, MMP-9, MMP-13, and MMP-14 were used in this assay. All enzymes were prepared in Assignee's laboratories following usual laboratory procedures. Protocols for the preparation and use of these enzymes are available in the scientific literature. See, e.g., Enzyme Nomenclature (Academic Press, San Diego, Calif., 1992) (and the citations therein). See also, Frije et al., J. Biol. Chem., 26(24), 16766-73 (1994).
The MMP-2 proenzyme was purified by gelatin Sepharose chromatography from MMP-2-transfected p2AHT2 cells provided by Dr. Gregory Goldberg of Washington University (St. Louis, Mo.).
(§3) All MMPs were activated using 4-aminophenylmercuric acetate (“APMA”, Sigma Chemical, St. Louis, Mo.) or trypsin. MMP-9 also was activated using human recombinant MMP-3 (purified in Assignee's laboratory following standard cloning and purification techniques).
(§4) Two fluorogenic, methoxycoumarin-containing polypeptide substrates were used in the MMP inhibition assays:
(§5) MCA-ProLeuGlyLeuDpaAlaArgNH2 (I)
(§6) Here, “Dpa” is 3-(2,4-dinitrophenyl)-L-2,3-diaminopropionyl group, and “MCA” is 7-methoxycoumarin-4-yl acetyl. Substrate (I) was purchased from Baychem (Redwood City, Calif.), and substrate II was prepared Assignee's laboratory. Substrate I was used in the IC50 determination assays, while substrate II was used in the Ki determination assays. In the absence of MMP inhibitory activity, either substrate is cleaved at the Gly-Leu peptide bond. This cleavage separates the highly fluorogenic peptide from the 2,4-dinitrophenyl quencher, thus resulting in increase of fluorescent intensity.
(§7) The stock solutions of the assayed hydroxamates (or salts thereof) were prepared in 1% dimethyl sulfoxide (DMSO). These stock solutions were diluted in Buffer A (100 mM Tris-HCl, 100 mM NaCl, 10 mM CaCl2, 0.05% polyoxyethylene 23 lauryl ether, pH 7.5) to obtain solutions with different hydroxamate concentrations, i.e., assay solutions with different concentrations of the assayed MMP inhibitory compound. The experiment controls contained the same amount of Buffer A/DMSO as the assayed sample, but contained no hydroxamate (or salt thereof).
(§8) The assays from which the IC50 determinations were made were performed as follows. The MMPs were activated with either trypsin or APMA (4-aminophenylmercuric acetate, Sigma Chemical, St. Louis, Mo.). The assayed hydroxamate samples were, incubated in Microfluorrm White Plates (Dynatech, Chantilly, VA) and analyzed on a Perkin Elmer L550 plate reader (Norwalk, Conn.). The excitation wavelength was 328 nm, and the emission wavelength—415 nm. All samples (assayed hydroxamates and controls) were incubated in separate plates at room temperature in the presence of 4 μM of MMP substrate (I). As stated in the previous paragraph, samples containing varying concentrations of the same assayed hydroxamate were prepared. Inhibition was measured as a reduction in fluorescent intensity as a function of MMP inhibitor concentration.

Human recombinant MMP-13 = target: T2, Human recombinant MMP-13 (Homo sapiens, UniProt P45452); assay: as above; format: biochemical
T2 construct: made in house; host or cells: baculovirus / insect cells
Protocol: as §1, §2
The expressed proenzyme was first purified over a heparin agarose column, and then over a chelating zinc chloride column. The proenzyme was then activated by APMA for use in the assay. Further details on baculovirus expression systems may be found in, for example, Luckow et al., J. Virol., 67, 4566-79 (1993). See also, O'Reilly et al, Baculovirus Expression Vectors: A Laboratory Manual (W. H. Freeman and Co., New York, N.Y., 1992). See also, King et al., The Baculovirus Expression System: A Laboratory Guide (Chapman & Hall, London, England, 1992).
as §3, §4, §5, §6, §7, §8

[1] = value outside parentheses (Ki in parenthesis)

IC50 (Human recombinant MMP-2; [1]) | IC50 (Human recombinant MMP-13; [1]) | SMILES | also measured
 |  | O=C(CCCOc1ccc(S(=O)(=O)C2(C(=O)NO)CCOCC2)cc1)N1CCc2ccccc21 [Example 577] | IC50 (Human recombinant MMP-2; value outside parentheses): 48.2 nM; IC50 (Human recombinant MMP-13; value outside parentheses): 1.2 nM
61.3 nM | < 0.1 nM | COc1ccc2cc(C(=O)CCCCOc3ccc(S(=O)(=O)C4(C(=O)NO)CCOCC4)cc3)ccc2c1 [Example 328] | 
 |  | O=C1CN(c2ccc(OC(F)(F)F)cc2)C(=O)N1CCCOc1ccc(S(=O)(=O)C2(C(=O)NO)CCN(C3CC3)CC2)cc1 [Example 133] | IC50 (Human recombinant MMP-2; value outside parenthesis): 84.4 nM; IC50 (Human recombinant MMP-13; value outside parenthesis): 4.3 nM
76 nM | 6.6 nM | CCCCOc1ccc(OCCCOc2ccc(S(=O)(=O)C3(C(=O)NO)CCOCC3)cc2)cc1 [Example 446] | 
115 nM | 4 nM | COc1ccc(S(=O)(=O)C[C@@H](C)COc2ccc(S(=O)(=O)C3(C(=O)NO)CCOCC3)cc2)cc1 [Example 431] | 
 |  | CC(C)c1cccc(CCCOc2ccc(S(=O)(=O)C3(C(=O)NO)CCOCC3)cc2)c1 [Example 94] | IC50 (Human recombinant MMP-2; value outside parenthesis): 17.8 nM; IC50 (Human recombinant MMP-13; value outside parenthesis): 3.7 nM
640 nM | 12 nM | COc1ccc(OC)c(S(=O)(=O)N2CC(Oc3ccc(S(=O)(=O)C4(C(=O)NO)CCOCC4)cc3)C2)c1 [Example 484] | 
 |  | CN(CCCOc1ccc(S(=O)(=O)C2(C(=O)NO)CCN(C3CC3)CC2)cc1)C(=O)C1C2CC3CC(C2)CC1C3 (centres unmarked) [Example 644] | IC50 (Human recombinant MMP-2; value outside parentheses): 2630 nM; IC50 (Human recombinant MMP-13; value outside parentheses): 20.9 nM
 |  | COc1ccc(C(=N)NCCCOc2ccc(S(=O)(=O)C3(C(=O)NO)CCOCC3)cc2)cc1 [Example 588] | IC50 (Human recombinant MMP-2; value outside parentheses): 94.9 nM; IC50 (Human recombinant MMP-13; value outside parentheses): 15 nM
11.9 nM | 18.1 nM | CC(C)N(Cc1ccc(C(=O)CCCOc2ccc(S(=O)(=O)C3(C(=O)NO)CCOCC3)cc2)cc1)C(C)C [Example 298] | 
301 nM | 19.8 nM | COc1cc2c(cc1OC)C(c1ccccc1)NC(C(=O)OCCCCOc1ccc(S(=O)(=O)C3(C(=O)NO)CCOCC3)cc1)C2 (centres unmarked) [Example 336] | 
235 nM | 4.5 nM | N#Cc1cccc(C(=O)NCCCOc2ccc(S(=O)(=O)C3(C(=O)NO)CCOCC3)cc2)c1 [Example 367] | 
17 nM | 8.6 nM | COc1ccc2c(c1)CCCN2CCCCCOc1ccc(S(=O)(=O)C2(C(=O)NO)CCOCC2)cc1 [Example 416] | 
7.8 nM | 2.5 nM | COc1cc(SC)ccc1C(=O)NNC(=O)CCCOc1ccc(S(=O)(=O)C2(C(=O)NO)CCOCC2)cc1 [Example 314] | 
900 nM | 690 nM | COCC(C)(C)COc1ccc(S(=O)(=O)C2(C(=O)NO)CCOCC2)cc1 [Example 455] | 
 |  | O=C(NCCOc1ccc(S(=O)(=O)C2(C(=O)NO)CCOCC2)cc1)c1ccc(-c2cc(C(F)(F)F)ccc2Cl)o1 [Example 611] | IC50 (Human recombinant MMP-2; value outside parentheses): 733 nM; IC50 (Human recombinant MMP-13; value outside parentheses): 13.6 nM
386 nM | 261 nM | COc1ccc(C(=O)NCCCCNc2ccc(S(=O)(=O)C3(C(=O)NO)CCOCC3)cc2)cc1 [Example 331] | 
 |  | COc1cc2c(cc1OC)CN(C(=O)NCCCOc1ccc(S(=O)(=O)C3(C(=O)NO)CCOCC3)cc1)CC2 [Example 496] | IC50 (Human recombinant MMP-2; value outside parentheses): 242 nM; IC50 (Human recombinant MMP-13; value outside parentheses): 8.4 nM
649 nM | 256 nM | COc1ccc(C(=O)N2CCCC(COc3ccc(S(=O)(=O)C4(C(=O)NO)CCOCC4)cc3)C2)cc1 (centres unmarked) [Example 421] | 
 |  | NC(=O)c1cccc(-c2noc(CCCOc3ccc(S(=O)(=O)C4(C(=O)NO)CCN(C5CC5)CC4)cc3)n2)c1 [Example 131] | IC50 (Human recombinant MMP-2; value outside parenthesis): 108 nM; IC50 (Human recombinant MMP-13; value outside parenthesis): 4.5 nM

IC50 (Human recombinant MMP-2; [1]) | IC50 (Human recombinant MMP-13; [1]) | SMILES | also measured
347 nM | 3.7 nM | COc1ccc(C(=O)NCCCOc2ccc(S(=O)(=O)C3(C(=O)NO)CCOCC3)cc2)cc1OC [Example 362] | 
454 nM | 30 nM | CCCC(C)(C)C(=O)NCCCOc1ccc(S(=O)(=O)C2(C(=O)NO)CCOCC2)cc1 [Example 402] | 
 |  | COc1ccc2cc(C(=O)CCCCOc3ccc(S(=O)(=O)C4(C(=O)NO)CCN(C5CC5)CC4)cc3)ccc2c1 [Example 265] | IC50 (Human recombinant MMP-2; value outside parenthesis): 40 nM; IC50 (Human recombinant MMP-13; value outside parenthesis): 0.2 nM
900 nM | 37 nM | Cc1cc(C)c(C(=O)NCCCOc2ccc(S(=O)(=O)C3(C(=O)NO)CCOCC3)cc2)c(C)c1 [Example 370] | 
 |  | O=C(Cc1nn[nH]n1)NCCOc1ccc(S(=O)(=O)C2(C(=O)NO)CCOCC2)cc1 [Example 564] | IC50 (Human recombinant MMP-2; value outside parentheses): 145 nM; IC50 (Human recombinant MMP-13; value outside parentheses): 19.4 nM
9.1 nM | 0.2 nM | O=C(CCCOc1ccc(S(=O)(=O)C2(C(=O)NO)CCOCC2)cc1)Nc1cc2ccccc2cc1O [Example 312] | 
 |  | COc1ccc(S(=O)(=O)NCCOc2ccc(S(=O)(=O)C3(C(=O)NO)CCOCC3)cc2)cc1 [Example 603] | IC50 (Human recombinant MMP-2; value outside parentheses): 34 nM; IC50 (Human recombinant MMP-13; value outside parentheses): 2.4 nM
3200 nM | 1900 nM | C[C@H](COc1ccc(S(=O)(=O)C2(C(=O)NO)CCOCC2)cc1)NC(=O)c1ccc(N(C)C)cc1 [Example 394] | 
1210 nM | 933 nM | COc1ccc(C(=O)NCCNc2ccc(S(=O)(=O)C3(C(=O)NO)CCOCC3)cc2)cc1 [Example 339] | 
 |  | CCOc1ccc(-c2nnn(CCCOc3ccc(S(=O)(=O)C4(C(=O)NO)CCN(CCOC)CC4)cc3)n2)cc1 [Example 156] | IC50 (Human recombinant MMP-2; value outside parenthesis): 32.1 nM; IC50 (Human recombinant MMP-13; value outside parenthesis): 1 nM
 |  | COCCN1CCC(C(=O)NO)(S(=O)(=O)c2ccc(OCCCN3C(=O)[C@@H](C)N(c4ccccc4)C3=O)cc2)CC1 [Example 108] | IC50 (Human recombinant MMP-2; value outside parenthesis): 434 nM; IC50 (Human recombinant MMP-13; value outside parenthesis): 20 nM
185 nM | 2 nM | O=C(NCCCOc1ccc(S(=O)(=O)C2(C(=O)NO)CCOCC2)cc1)c1ccc2ccccc2c1O [Example 388] | 
4 nM | 4 nM | COc1ccc(C(=O)NCCCCOc2ccc(S(=O)(=O)C3(C(=O)NO)CCOCC3)cc2)cc1 [Example 396] | 
 |  | COCCN1CCC(C(=O)NO)(S(=O)(=O)c2ccc(OCCCc3nc(-c4ccc(CCC(C)C)cc4C)no3)cc2)CC1 [Example 100] | IC50 (Human recombinant MMP-2; value outside parenthesis): 1690 nM; IC50 (Human recombinant MMP-13; value outside parenthesis): 153 nM
 |  | O=C(NO)C1(S(=O)(=O)c2ccc(OCCCc3ccc(-c4ccccc4)cc3)cc2)CCOCC1 [Example 270] | IC50 (Human recombinant MMP-2; value outside parenthesis): 522 nM; IC50 (Human recombinant MMP-13; value outside parenthesis): 8.1 nM
900 nM | 7 nM | Cn1cccc1C(=O)NCCCOc1ccc(S(=O)(=O)C2(C(=O)NO)CCOCC2)cc1 [Example 391] | 
254 nM | 15 nM | CC(C)(C(=O)NCCCOc1ccc(S(=O)(=O)C2(C(=O)NO)CCOCC2)cc1)c1ccccc1 [Example 404] | 
 |  | CC(C)Oc1cccc(NC(=O)CCCOc2ccc(S(=O)(=O)C3(C(=O)NO)CCOCC3)cc2)c1 [Example 583] | IC50 (Human recombinant MMP-2; value outside parentheses): 15.7 nM; IC50 (Human recombinant MMP-13; value outside parentheses): 1.6 nM
193 nM | 1.4 nM | O=C(NCCCOc1ccc(S(=O)(=O)C2(C(=O)NO)CCOCC2)cc1)c1ccc(Cl)nc1 [Example 381] | 
37 nM | 14 nM | O=C(NO)C1(S(=O)(=O)c2ccc(OCCCCCN3CCCc4ccccc43)cc2)CCOCC1 [Example 414] | 
